Measured values published in PubChem BioAssay (NCI).
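Growth conditions: 96-well plates. Treatment: test compound, 48 hours, 5 concentrations. Analysis: linear interpolation between bracketing concentrations; unreached endpoints set to highest concentration. The concentration for 50% growth inhibition is given as GI50. TGI marks complete inhibition of growth.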

Legend:
Assay in all cases: NCI-60 cell line screen, 48 h
HCT-15 colon = tested on: HCT-15 colon
SNB-19 CNS = tested on: SNB-19 CNS
HOP-62 NSCLC = tested on: HOP-62 NSCLC
LOX IMVI melanoma = tested on: LOX IMVI melanoma
SK-MEL-5 melanoma = tested on: SK-MEL-5 melanoma
U251 CNS = tested on: U251 CNS
MOLT-4 leukemia = tested on: MOLT-4 leukemia
NCI-H522 lung = tested on: NCI-H522 lung
SNB-75 CNS = tested on: SNB-75 CNS
MALME-3M melanoma = tested on: MALME-3M melanoma
SF-268 CNS = tested on: SF-268 CNS
HCT-116 colon = tested on: HCT-116 colon
SR leukemia = tested on: SR leukemia
UACC-257 melanoma = tested on: UACC-257 melanoma
BT-549 breast = tested on: BT-549 breast
IGROV1 ovarian = tested on: IGROV1 ovarian
RPMI-8226 leukemia = tested on: RPMI-8226 leukemia
NCI-H460 lung = tested on: NCI-H460 lung
K-562 leukemia = tested on: K-562 leukemia
A549 NSCLC = tested on: A549 NSCLC
HCC-2998 colon = tested on: HCC-2998 colon
OVCAR-4 ovarian = tested on: OVCAR-4 ovarian
TK-10 renal = tested on: TK-10 renal
KM12 colon = tested on: KM12 colon
A498 renal = tested on: A498 renal
HT29 colon = tested on: HT29 colon
OVCAR-8 ovarian = tested on: OVCAR-8 ovarian
RXF 393 renal = tested on: RXF 393 renal
OVCAR-5 ovarian = tested on: OVCAR-5 ovarian
SK-MEL-28 melanoma = tested on: SK-MEL-28 melanoma
HS 578T breast = tested on: HS 578T breast
M14 melanoma = tested on: M14 melanoma
SN12C renal = tested on: SN12C renal
786-0 renal = tested on: 786-0 renal
CCRF-CEM leukemia = tested on: CCRF-CEM leukemia
DU-145 prostate = tested on: DU-145 prostate
NCI-H23 lung = tested on: NCI-H23 lung
UACC-62 melanoma = tested on: UACC-62 melanoma
NCI/ADR-RES ovarian = tested on: NCI/ADR-RES ovarian
HOP-92 NSCLC = tested on: HOP-92 NSCLC
MCF7 breast = tested on: MCF7 breast
MDA-MB-231 breast = tested on: MDA-MB-231 breast
UO-31 renal = tested on: UO-31 renal
SK-OV-3 ovarian = tested on: SK-OV-3 ovarian
MDA-MB-435 = tested on: MDA-MB-435
SF-539 CNS = tested on: SF-539 CNS
OVCAR-3 ovarian = tested on: OVCAR-3 ovarian
PC-3 prostate = tested on: PC-3 prostate
SF-295 CNS = tested on: SF-295 CNS
CAKI-1 renal = tested on: CAKI-1 renal
T-47D breast = tested on: T-47D breast
ACHN renal = tested on: ACHN renal
COLO 205 colon = tested on: COLO 205 colon
NCI-H226 lung = tested on: NCI-H226 lung
SW-620 colon = tested on: SW-620 colon
HL-60(TB) leukemia = tested on: HL-60(TB) leukemia
SK-MEL-2 melanoma = tested on: SK-MEL-2 melanoma

In the case of `COc1cc(-c2nn(-c3cccc(NC(=O)c4ccc(Cl)c(C(F)(F)F)c4)c3)cc2-c2ccncc2)ccc1Cl`, the GI50 (HCT-15 colon) is reported as 3.15 µM, the TGI (HCT-15 colon) is reported as > 32.5 µM and the GI50 (SNB-19 CNS) is reported as 7.64 µM. The TGI (SNB-19 CNS) was > 32.5 µM, the GI50 (HOP-62 NSCLC) was 6.5 µM and the TGI (HOP-62 NSCLC) was > 32.5 µM. For the same compound, the GI50 (LOX IMVI melanoma) was 1.92 µM, the TGI (LOX IMVI melanoma) was > 32.5 µM and the GI50 (SK-MEL-5 melanoma) was 1.13 µM. For the same compound, the TGI (SK-MEL-5 melanoma) was 8.69 µM, the GI50 (U251 CNS) was 2.39 µM and the TGI (U251 CNS) was > 32.5 µM. For the same compound, the GI50 (MOLT-4 leukemia) was 5.24 µM, the TGI (MOLT-4 leukemia) was > 32.5 µM and the GI50 (NCI-H522 lung) was 0.794 µM. It also gave a TGI (NCI-H522 lung) of 5.52 µM, a GI50 (SNB-75 CNS) of 1.07 µM and a TGI (SNB-75 CNS) of 13.2 µM. For the same compound, the GI50 (MALME-3M melanoma) was 0.922 µM, the TGI (MALME-3M melanoma) was 6.68 µM and the GI50 (SF-268 CNS) was 3.24 µM. The TGI (SF-268 CNS) was > 32.5 µM, the GI50 (HCT-116 colon) was 2.04 µM and the TGI (HCT-116 colon) was > 32.5 µM. For the same compound, the GI50 (SR leukemia) was 0.809 µM, the TGI (SR leukemia) was > 10.2 µM and the GI50 (UACC-257 melanoma) was 3.6 µM. For the same compound, the TGI (UACC-257 melanoma) was > 32.5 µM, the GI50 (BT-549 breast) was 4.35 µM and the TGI (BT-549 breast) was > 32.5 µM. The GI50 (IGROV1 ovarian) was 1.78 µM, the TGI (IGROV1 ovarian) was > 32.5 µM and the GI50 (RPMI-8226 leukemia) was 1.08 µM. For the same compound, the TGI (RPMI-8226 leukemia) was > 21.8 µM, the GI50 (NCI-H460 lung) was 2.21 µM and the TGI (NCI-H460 lung) was > 32.5 µM. For the same compound, the GI50 (K-562 leukemia) was 1.21 µM, the TGI (K-562 leukemia) was > 32.5 µM and the GI50 (A549 NSCLC) was 2.41 µM. The TGI (A549 NSCLC) was > 32.5 µM, the GI50 (HCC-2998 colon) was 9.89 µM and the TGI (HCC-2998 colon) was > 32.5 µM. The GI50 (OVCAR-4 ovarian) was 6.26 µM, the TGI (OVCAR-4 ovarian) was > 32.5 µM and the GI50 (TK-10 renal) was 12.9 µM. The TGI (TK-10 renal) was > 32.5 µM, the GI50 (KM12 colon) was 1.6 µM and the TGI (KM12 colon) was > 32.5 µM. For the same compound, the GI50 (A498 renal) was 1.02 µM, the TGI (A498 renal) was 7.01 µM and the GI50 (HT29 colon) was 3.33 µM. For the same compound, the TGI (HT29 colon) was > 26.1 µM, the GI50 (OVCAR-8 ovarian) was 3.35 µM and the TGI (OVCAR-8 ovarian) was > 32.5 µM. For the same compound, the GI50 (RXF 393 renal) was 2.01 µM, the TGI (RXF 393 renal) was > 24.6 µM and the GI50 (OVCAR-5 ovarian) was > 28.4 µM. For the same compound, the TGI (OVCAR-5 ovarian) was > 32.5 µM, the GI50 (SK-MEL-28 melanoma) was 3.09 µM and the TGI (SK-MEL-28 melanoma) was > 32.5 µM. For the same compound, the GI50 (HS 578T breast) was 1.78 µM, the TGI (HS 578T breast) was > 29.5 µM and the GI50 (M14 melanoma) was 2.31 µM. For the same compound, the TGI (M14 melanoma) was > 32.5 µM, the GI50 (SN12C renal) was 7.15 µM and the TGI (SN12C renal) was > 32.5 µM. The GI50 (786-0 renal) was 8.2 µM, the TGI (786-0 renal) was > 32.5 µM and the GI50 (CCRF-CEM leukemia) was 1.77 µM. For the same compound, the TGI (CCRF-CEM leukemia) was > 32.5 µM, the GI50 (DU-145 prostate) was 5.46 µM and the TGI (DU-145 prostate) was > 32.5 µM. For the same compound, the GI50 (NCI-H23 lung) was 3.14 µM, the TGI (NCI-H23 lung) was > 32.5 µM and the GI50 (UACC-62 melanoma) was 1.6 µM. The TGI (UACC-62 melanoma) was > 32.5 µM, the GI50 (NCI/ADR-RES ovarian) was 1.18 µM and the TGI (NCI/ADR-RES ovarian) was 15 µM. The GI50 (HOP-92 NSCLC) was 0.425 µM, the TGI (HOP-92 NSCLC) was 2.5 µM and the GI50 (MCF7 breast) was 1.82 µM. The TGI (MCF7 breast) was > 32.5 µM, the GI50 (MDA-MB-231 breast) was 1.44 µM and the TGI (MDA-MB-231 breast) was > 32.5 µM. The GI50 (UO-31 renal) was 0.551 µM, the TGI (UO-31 renal) was > 32.5 µM and the GI50 (SK-OV-3 ovarian) was 7.53 µM. The TGI (SK-OV-3 ovarian) was > 32.5 µM, the GI50 (MDA-MB-435) was 0.658 µM and the TGI (MDA-MB-435) was 1.79 µM. It also gave a GI50 (SF-539 CNS) of 2.63 µM, a TGI (SF-539 CNS) of 15 µM and a GI50 (OVCAR-3 ovarian) of 1.43 µM. The TGI (OVCAR-3 ovarian) was 15.2 µM, the GI50 (PC-3 prostate) was 0.798 µM and the TGI (PC-3 prostate) was > 16.3 µM. For the same compound, the GI50 (SF-295 CNS) was 1.08 µM, the TGI (SF-295 CNS) was 8.19 µM and the GI50 (CAKI-1 renal) was 2.34 µM. The TGI (CAKI-1 renal) was > 32.5 µM, the GI50 (T-47D breast) was 1.3 µM and the TGI (T-47D breast) was > 32.5 µM. The GI50 (ACHN renal) was 1.91 µM, the TGI (ACHN renal) was > 32.5 µM and the GI50 (COLO 205 colon) was 3.5 µM. For the same compound, the TGI (COLO 205 colon) was 17.6 µM, the GI50 (NCI-H226 lung) was 7.83 µM and the TGI (NCI-H226 lung) was > 32.5 µM. The GI50 (SW-620 colon) was 2.87 µM, the TGI (SW-620 colon) was > 32.5 µM and the GI50 (HL-60(TB) leukemia) was 2.56 µM. For the same compound, the TGI (HL-60(TB) leukemia) was > 32.5 µM, the GI50 (SK-MEL-2 melanoma) was 1.42 µM and the TGI (SK-MEL-2 melanoma) was 10.1 µM.
